“And” between values parts separate entries of the source, which are not always exact repeats. Equal values may be shown once.
Test system: mouse embryonic day (e) 10 dorsal pancreatic buds
Assay: Culture of e10 dorsal pancreatic bud explants with or without RA, endocrine cells scored by immunohistochemistry
Format: cell-based
Excerpt: From mating between C57BL/6 (wild-type) mice, pregnant females were sacrificed ten days after the appearance of a vaginal plug, and embryos collected. The ten-day-old embryos were dissected in L15 medium (Gibco) using forceps and tungsten needles. The L15 medium is […]
At this embryonic stage the dorsal pancreatic bud can be seen as a round structure forming from the gut endoderm that can be dissected out from the surrounding tissues (see FIG. 3). Using a mouth pipette individual isolated pancreatic buds were placed on 0.4 μm, pore 3,28 12 mm Millicell-CM PICM01250 filters (Millipore) that were subsequently placed in a twenty-four well plate (Costar) where each well contained 400 μl culture medium, consisting of DMEM-glutamax1 (Gibco), 1×N2-supplement (Gibco) and PEST (Gibco).
The explants were cultured for six days in 37° C. and 5% CO2 in culture medium alone (control explants) or with 25 nM all-trans retinoic acid (Sigma) added to the medium.
After six days of culture the explants were washed twice in PBS, fixated in 4% PFA in PBS for 25 minutes followed by two more washes in PBS. Using a small pair of scissors the filter was cut around the explant and the filter piece with the explant attached to it was placed in Tissue Tek O.C.T. Compound 4583 (Sakura). In the Tissue Tek the explant was gently removed from the filter using tungsten needles. A small drop of Tissue Tek was applied on a glass slide (Menzel) and the explant was placed in the drop using forceps and tungsten needles. The glass slides were put on dry ice to freeze the drops and were then stored in −80° C.
The frozen explants were sectioned using a Cryostat into […] thick sections that were collected on Superfrost Plus glass slides (Menzel). All explants from one experiment were put on the same slides. The slides were placed in a hybridisation chamber and blocked with blocking solution, TBST (50 mMT nsHCl, pH7.4, 150 mM MaCl, 0,1% Triton X-100)+10% FCS (fetal calf serum), for one hour. After blocking, primary antibodies diluted in fresh blocking solution were added and the slides were incubated overnight at 4° C. The following primary antibodies were used: guinea-pig α insulin (Linco) diluted 1/200, rabbit α glucagon (Euro Diagnostica) diluted 1/1000 and rabbit anti-ngn3 (raised against a GST-ngn3 fusion protein by AgriSeraAB) diluted 1/400. The slides were washed 3×5 minutes in TBST before incubation with secondary antibodies; a guinea-pig alexa488 (Molecular Probes) diluted 1/1000 and α rabbitCy3 (Jackson) diluted 1/400, for one hour in room temperature. The slides were then washed again 3×5 minutes in TBST before they were mounted using Vectashield with DAPI (Vector). The slides were analysed using a Nikon fluorescence microscope. The cells stained for insulin and glucagos respectively were counted and divided by the total number of cells that was counted using the DAPI staining which stains DNA i.e. every cell nucleus.
To investigate a role for RA in pancreatic cell differentiation mouse embryonic day (e) 10 dorsal pancreatic buds, which primarily contain pancreatic stem cells and very few differentiated pancreatic cells, were cultured in serum free media with or without RA for six days. The in vitro cultured explants were then scored for the appearance of endocrine cells expressing glucagon and insulin by immunohistochemistry using antibodies specific for glucagon and insulin. In vitro cultivation in media alone generated a few glucagon-(˜10% of total cells) and insulin-positive (˜5% of total cells) cells but the majority of cells were of non-endocrine origin (FIGS. 1 A-C and data not shown). […] Moreover, RA preferentially stimulated the differentiation of insulin-positive cells, which increased ˜4.5 fold, whereas glucagon-positive cells increased only ˜1,5 fold (FIG. 1D-F).

SMILES: CC1=C(/C=C/C(C)=C/C=C/C(C)=C/C(=O)O)C(C)(C)CCC1 [RA, all-trans retinoic acid]
- increase in the number of ngn3-positive cells/total number of cells (25 nM RA, 2 and 4 days of culture, versus medium alone): five-fold increase
- effect on the number of glucagon cells (25 nM RA, versus medium alone, N=6): No significant effect
- increase in the number of insulin positive cells/total number of cells (25 nM all-trans RA, six days of culture, versus explants in medium alone): > 3 fold and ~4.5 fold
- increase in endocrine cells (25 nM all-trans RA, six days, versus explants cultured in media alone): more than 2 fold
- increase in glucagon-positive cells (25 nM all-trans RA, six days, versus media alone): ~1,5 fold
- endocrine cells (glucagon- and insulin-positive) of total cells (25 nM all-trans RA, six days, media alone ~15%): ~37%
